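Briefly, cells in 96-well plates were exposed to five compound concentrations for 48 h, and endpoints were estimated by linear interpolation. TGI: concentration producing complete growth inhibition.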
Key:
Assay in all cases: DTP human tumour cell line panel, 48 h
[1] = test system: XF 498 CNS
[2] = test system: RXF 393 renal
[3] = test system: SNB-78 CNS
[4] = test system: RPMI-8226 leukemia
[5] = test system: SN12C renal
[6] = test system: UACC-62 melanoma
[7] = test system: SK-MEL-5 melanoma
[8] = test system: OVCAR-8 ovarian
[9] = test system: M19-MEL melanoma
[10] = test system: OVCAR-3 ovarian
[11] = test system: OVCAR-5 ovarian
[12] = test system: A498 renal
[13] = test system: DLD-1 colon
[14] = test system: U251 CNS
[15] = test system: HOP-18 NSCLC
[16] = test system: ACHN renal
[17] = test system: MDA-MB-231 breast
[18] = test system: M14 melanoma
[19] = test system: DU-145 prostate
[20] = test system: PC-3 prostate

SMILES	TGI [1]	TGI [2]	TGI [3]	TGI [4]	TGI [5]	TGI [6]	TGI [7]	TGI [8]	TGI [9]	TGI [10]	TGI [11]	TGI [12]	TGI [13]	TGI [14]	TGI [15]	TGI [16]	TGI [17]	TGI [18]	TGI [19]	TGI [20]
Cc1[nH]c(=O)[nH]c(=O)c1/C=C/C(=O)NC(CO)CC(C)C (centres undefined)	> 346 µM	> 375 µM	> 375 µM	> 375 µM	> 375 µM	> 375 µM	> 375 µM	> 237 µM	> 375 µM	> 375 µM	> 375 µM	> 375 µM	> 375 µM	> 375 µM	> 375 µM	–	–	–	–	–
CCOC(=O)/C=C/CC(C)(C)COC(C)=O	–	> 10 µM	–	> 10 µM	> 10 µM	> 10 µM	–	–	–	> 10 µM	> 10 µM	–	–	–	–	> 10 µM	> 10 µM	> 10 µM	> 10 µM	> 10 µM
CC(C)=CCc1c(O)cc(O)c2c1OC(c1ccc(O)cc1)C(O)C2=O (centres undefined)	70.3 µM	49.9 µM	95.3 µM	–	> 100 µM	46.8 µM	41.4 µM	> 100 µM	> 100 µM	36.7 µM	61.1 µM	> 100 µM	> 100 µM	74.5 µM	43.4 µM	82.9 µM	–	57.3 µM	–	–
CCOC(=O)C1(CO)CSCCSC1	–	> 100 µM	–	–	> 100 µM	–	> 100 µM	> 100 µM	–	–	–	> 100 µM	–	> 100 µM	–	> 100 µM	> 100 µM	–	> 100 µM	> 100 µM
CCC(C)C(=O)OC1C(=O)OC2CC3C(C)=CC(=O)C(O)C3(C)C3C4(O)OCC23C1C(C)C4O (centres undefined)	–	–	–	0.784 µM	–	0.188 µM	0.025 µM	0.0634 µM	–	0.124 µM	–	3.3 µM	–	< 0.0317 µM	–	0.257 µM	0.161 µM	0.0481 µM	0.0977 µM	0.481 µM
CC(=O)OC1C=C(C=O)C(O)(C=O)C2(C)CCCC(C)(C)C12 (centres undefined)	4.3 µM	1.01 µM	5.44 µM	1.5 µM	5.97 µM	6.1 µM	2.2 µM	4.6 µM	3.36 µM	2.15 µM	8.16 µM	2.31 µM	3.77 µM	7.39 µM	1.58 µM	–	–	–	–	–

— PubChem BioAssay (NCI)
